Our source for the TGI values is PubChem BioAssay (NCI).

Test systems include NCI-H23 lung; OVCAR-4 ovarian; MALME-3M melanoma; RXF 393 renal; MDA-MB-231 breast; NCI/ADR-RES ovarian; HCT-15 colon; SK-MEL-28 melanoma; A498 renal; SK-OV-3 ovarian; IGROV1 ovarian; KM12 colon; MCF7 breast; CAKI-1 renal; RPMI-8226 leukemia; COLO 205 colon; MOLT-4 leukemia; NCI-H226 lung.
What all share (test): NCI-60 cell line screen, 48 h

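Exposure lasted 48 hours, with cells grown in 96-well plates and compounds tested at five concentrations. TGI: concentration producing complete growth inhibition.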

With `COCN1C(=O)[C@@H]2CCCN2C(=O)c2cc(OC)c(Cc3ccccc3)cc21`, the TGI in the test on NCI-H23 lung, with OVCAR-4 ovarian, with MALME-3M melanoma, in the test with RXF 393 renal, in the test with MDA-MB-231 breast and in the test with NCI/ADR-RES ovarian was more than 100 µM in each case. Besides, the TGI with HCT-15 colon, with SK-MEL-28 melanoma, with A498 renal, in the test with SK-OV-3 ovarian, in the test on IGROV1 ovarian and with KM12 colon was more than 100 µM each time. Further, the TGI in the test with MCF7 breast and with CAKI-1 renal was more than 100 µM in each case.
Turning to `C=CCOC(=O)Cn1cnc2c(N)ncnc21`, the TGI with NCI-H23 lung, with OVCAR-4 ovarian, in the test with MALME-3M melanoma, in the test on MDA-MB-231 breast, in the test on NCI/ADR-RES ovarian and in the test on RPMI-8226 leukemia was more than 100 µM in each case. For the same molecule, the TGI with COLO 205 colon, with HCT-15 colon, in the test with SK-MEL-28 melanoma, with MOLT-4 leukemia, in the test with A498 renal and with SK-OV-3 ovarian was more than 100 µM each time. Moreover, the TGI in the test with IGROV1 ovarian, with NCI-H226 lung, in the test with KM12 colon, with MCF7 breast and in the test on CAKI-1 renal was more than 100 µM in each case.
In the case of `CCOC(=O)c1nc2ccccc2nc1Oc1cc(OC)cc(OC)c1`, the TGI in the test with OVCAR-4 ovarian, with MALME-3M melanoma, in the test on RXF 393 renal, in the test on MDA-MB-231 breast, in the test with NCI/ADR-RES ovarian and with RPMI-8226 leukemia was more than 100 µM throughout. For the same molecule, the TGI in the test on COLO 205 colon, with HCT-15 colon, in the test with SK-MEL-28 melanoma, with MOLT-4 leukemia, in the test on A498 renal and with SK-OV-3 ovarian was more than 100 µM in each case. In addition, the TGI in the test with IGROV1 ovarian, in the test with NCI-H226 lung, in the test with KM12 colon and with MCF7 breast was more than 100 µM each time.
Consider `COCCN(C(=O)c1ccccc1)C1CCC2(SCCS2)c2[nH]c3ccccc3c21` (centres undefined), for which the TGI in the test with NCI-H23 lung is more than 100 µM; in the test with MALME-3M melanoma, more than 100 µM; in the test with RXF 393 renal it was 87.7 µM; with MDA-MB-231 breast it was more than 100 µM; in the test on NCI/ADR-RES ovarian, more than 100 µM; with RPMI-8226 leukemia it was 61.8 µM. The TGI in the test on COLO 205 colon is more than 100 µM; with HCT-15 colon, more than 100 µM; in the test on SK-MEL-28 melanoma it was more than 100 µM; in the test with MOLT-4 leukemia, 69.4 µM; in the test on A498 renal it was more than 100 µM; with IGROV1 ovarian it was more than 100 µM. The TGI in the test with NCI-H226 lung, in the test with KM12 colon, in the test with MCF7 breast and with CAKI-1 renal was more than 100 µM each time.
Consider `O=c1[nH]c(=S)[nH]cc1CN1CCOCC1`, for which the TGI with NCI-H23 lung, in the test with OVCAR-4 ovarian, in the test on MALME-3M melanoma, with RXF 393 renal, in the test on MDA-MB-231 breast and in the test with NCI/ADR-RES ovarian was more than 100 µM in each case. In addition, the TGI in the test with RPMI-8226 leukemia, in the test with COLO 205 colon, in the test with HCT-15 colon, in the test with SK-MEL-28 melanoma, in the test with MOLT-4 leukemia and in the test on A498 renal was more than 100 µM each time. The TGI in the test on SK-OV-3 ovarian, with IGROV1 ovarian, in the test with KM12 colon, in the test on MCF7 breast and in the test with CAKI-1 renal was more than 100 µM each time.
In the case of `CSC(=S)CC(O)[C@@H]1CC2c3ccccc3C1c1ccccc12` (some centres undefined), the TGI with NCI-H23 lung stood at 22.2 µM; in the test on OVCAR-4 ovarian, 27.5 µM; with MALME-3M melanoma, 39.1 µM; with RXF 393 renal, 7.54 µM; in the test with MDA-MB-231 breast, 54.3 µM; with NCI/ADR-RES ovarian, 54.7 µM. Besides, the TGI with RPMI-8226 leukemia was 20.7 µM; in the test with COLO 205 colon, 36.4 µM; in the test on HCT-15 colon, 25.6 µM; in the test on SK-MEL-28 melanoma, 48.5 µM; in the test on MOLT-4 leukemia, 8.24 µM; with A498 renal it was 37.3 µM. In addition, the TGI with SK-OV-3 ovarian turned out to be 28.7 µM; in the test on IGROV1 ovarian, 33.1 µM; in the test with NCI-H226 lung, 79.1 µM; with KM12 colon, 25.5 µM; in the test with MCF7 breast, 62.1 µM.
Consider `C=C1CC[C@](C)(O)[C@@]2(C)CC[C@H]3C(=C(C)C)C(=O)C[C@]3(C)C[C@H]12`, for which the TGI in the test on NCI-H23 lung, in the test on OVCAR-4 ovarian, in the test on RXF 393 renal, in the test with MDA-MB-231 breast, in the test with NCI/ADR-RES ovarian and in the test with RPMI-8226 leukemia was more than 50 µM each time. The TGI was more than 50 µM with COLO 205 colon; 46.2 µM in the test with HCT-15 colon; more than 50 µM with SK-MEL-28 melanoma; 31.6 µM with MOLT-4 leukemia; more than 50 µM with A498 renal; more than 50 µM with SK-OV-3 ovarian. Further, the TGI in the test on IGROV1 ovarian, in the test with NCI-H226 lung, with KM12 colon, with MCF7 breast and with CAKI-1 renal was more than 50 µM each time.
For `COC(=O)/C=C1\SC2(OC1=Nc1ccccc1)C1CC3CC(C1)CC2C3` (centres undefined), the TGI in the test with OVCAR-4 ovarian, in the test on RXF 393 renal, with MDA-MB-231 breast, with NCI/ADR-RES ovarian, in the test on RPMI-8226 leukemia and in the test with HCT-15 colon was more than 100 µM in each case. For the same molecule, the TGI in the test with SK-MEL-28 melanoma, in the test on MOLT-4 leukemia, in the test on A498 renal, in the test with SK-OV-3 ovarian, in the test with IGROV1 ovarian and with NCI-H226 lung was more than 100 µM throughout. The TGI in the test with KM12 colon, in the test on MCF7 breast and in the test with CAKI-1 renal was more than 100 µM in each case.
